Key:
myeloperoxidase [1] = molecular target: T1, myeloperoxidase (Homo sapiens, UniProt P05164); assay: MPO Peroxidation Assay (Amplex Red Assay); type: biochemical; details: potency range class, read-out: Amplex Red Assay IC50 value
T1 sequence (P05164 49-745): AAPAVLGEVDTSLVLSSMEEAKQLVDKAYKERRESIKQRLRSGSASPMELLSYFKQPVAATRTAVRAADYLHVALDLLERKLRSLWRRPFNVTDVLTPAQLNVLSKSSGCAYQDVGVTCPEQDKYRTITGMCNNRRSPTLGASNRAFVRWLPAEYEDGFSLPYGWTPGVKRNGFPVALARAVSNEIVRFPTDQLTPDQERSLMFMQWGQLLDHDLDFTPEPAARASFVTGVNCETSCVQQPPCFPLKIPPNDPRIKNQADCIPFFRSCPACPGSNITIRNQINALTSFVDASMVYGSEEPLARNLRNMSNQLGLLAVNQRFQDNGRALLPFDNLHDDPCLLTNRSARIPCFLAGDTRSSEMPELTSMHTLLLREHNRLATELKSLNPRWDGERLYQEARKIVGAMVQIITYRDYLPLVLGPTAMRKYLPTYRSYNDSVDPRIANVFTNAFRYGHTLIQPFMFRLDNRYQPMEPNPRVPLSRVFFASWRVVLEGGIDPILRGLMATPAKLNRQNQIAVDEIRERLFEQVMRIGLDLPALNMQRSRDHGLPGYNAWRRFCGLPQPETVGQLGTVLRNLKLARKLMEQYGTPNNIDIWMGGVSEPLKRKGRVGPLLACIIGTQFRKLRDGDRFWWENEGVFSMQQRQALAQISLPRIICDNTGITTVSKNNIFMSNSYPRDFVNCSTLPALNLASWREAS

myeloperoxidase [2] = molecular target: T1, myeloperoxidase; assay: MPO Chlorination Assay (APF Assay); type: biochemical; details: potency range class, read-out: APF Assay IC50 value

| IC50 (myeloperoxidase [1]) [nM] | IC50 (myeloperoxidase [2]) [nM] | SMILES |
| --- | --- | --- |
| 1000 to 10000 | 1 to 100 | Nc1cc([C@H](CCN2CCC(O)(Cc3ccccc3)CC2)c2ccccc2)c2nn[nH]c2n1 [Example 185, 1-[(3R)-3-{5-amino-3H-[1,2,3]triazolo [4,5-b]pyridin-7-yl}-3-phenylpropyl]-4-benzylpiperidin-4-ol] |
| 1000 to 10000 | 101 to 999 | Nc1cc(C(CCN2CCC(c3ccccc3)CC2)c2ccccc2)c2nn[nH]c2n1 (stereo not drawn) [Example 186, 7-[1-phenyl-3-(4-phenylpiperidin-1-yl)propyl]-3H-[1,2,3] triazolo[4,5-b] pyridin-5-amine] |
| 1000 to 10000 | 1 to 100 | Nc1cc(C(CCN2CCC(Cc3ccccc3)CC2)c2ccccc2)c2nn[nH]c2n1 (stereo not drawn) [Example 187, 7-[3-(4-benzylpiperidin-1-yl)-1-phenylpropyl]-3H-[1,2,3]triazolo [4,5-b]pyridin-5-amine] |
| 101 to 999 | 1 to 100 | Nc1cc(C(CCNC2CCc3ccccc3C2)c2ccccc2)c2nn[nH]c2n1 (stereo not drawn) [Example 188, 7-{1-phenyl-3-[(1,2,3,4-tetrahydronaphthalen-2-yl)amino]propyl}-3H-[1,2,3]triazolo [4,5-b]pyridin-5-amine] |
| 101 to 999 | 1 to 100 | NC(=O)CN(CC[C@H](c1ccccc1)c1cc(N)nc2[nH]nnc12)C12CCC(c3ccccc3)(CC1)CC2 [Example 190, (R)-2-((3-(5-amino-3H-[1,2,3]triazolo[4,5-b]pyridin-7-yl)-3-phenylpropyl)(4-phenylbicyclo[2.2.2]octan-1-yl)amino)acetamide] |
| 101 to 999 | 1 to 100 | CNC(=O)CN(CC[C@H](c1ccccc1)c1cc(N)nc2[nH]nnc12)C12CCC(c3ccccc3)(CC1)CC2 [Example 191, 2-{[(3R)-3-{5-amino-3H-[1,2,3]triazolo [4,5-b]pyridin-7-yl}-3-phenylpropyl]({4-phenylbicyclo[2.2.2]octan-1-yl})amino}-N-methylacetamide] |
| 1000 to 10000 | 1 to 100 | CN(C)C(=O)CN(CC[C@H](c1ccccc1)c1cc(N)nc2[nH]nnc12)C12CCC(c3ccccc3)(CC1)CC2 [Example 192, 2-{[(3R)-3-{5-amino-3H-[1,2,3]triazolo [4,5-b]pyridin-7-yl}-3-phenylpropyl]({4-phenylbicyclo[2.2.2]octan-1-yl})amino}-N,N-dimethylacetamide] |
| 1 to 100 | 1 to 100 | Nc1cc([C@H](CCN(CC2CCO2)C23CCC(c4ccccc4)(CC2)CC3)c2ccccc2)c2nn[nH]c2n1 (stereo partly drawn) [Example 193, 7-[(1R)-3-{[(oxetan-2-yl)methyl]({4-phenylbicyclo [2.2.2]octan-1-yl})amino}-1-phenylpropyl]-3H-[1,2,3]triazolo[4,5-b]pyridin-5-amine] |
| 101 to 999 | 1 to 100 | Nc1cc([C@H](CCN(CC2CCCO2)C23CCC(c4ccccc4)(CC2)CC3)c2ccccc2)c2nn[nH]c2n1 (stereo partly drawn) [Example 195, 7-[(1R)-3-{[(oxolan-2-yl)methyl]({4-phenylbicyclo [2.2.2]octan-1-yl})amino}-1-phenylpropyl]-3H-[1,2,3]triazolo[4,5-b]pyridin-5-amine] |
| 101 to 999 | 1 to 100 | COCCN(CC[C@H](c1ccccc1)c1cc(N)nc2[nH]nnc12)C12CCC(c3ccccc3)(CC1)CC2 [Example 196, 7-[(1R)-3-[(2-methoxyethyl)({4-phenylbicyclo[2.2.2]octan-1-yl})amino]-1-phenylpropyl]-3H-[1,2,3]triazolo[4,5-b]pyridin-5-amine] |
| 101 to 999 | 1 to 100 | Nc1cc([C@H](CCN(CC(F)F)C23CCC(c4ccccc4)(CC2)CC3)c2ccccc2)c2nn[nH]c2n1 [Example 197, 7-[(1R)-3-[(2,2-difluoroethyl)({4-phenylbicyclo[2.2.2]octan-1-yl})amino]-1-phenylpropyl]-3H-[1,2,3]triazolo[4,5-b]pyridin-5-amine] |
| 1 to 100 | 1 to 100 | Nc1cc([C@H](CCN(CC(O)C(F)(F)F)C23CCC(c4ccccc4)(CC2)CC3)c2ccccc2)c2nn[nH]c2n1 (stereo partly drawn) [Example 198, 3-{[(3R)-3-{5-amino-3H-[1,2,3]triazolo [4,5-b]pyridin-7-yl}-3-phenylpropyl]({4-phenylbicyclo[2.2.2]octan-1-yl})amino}-1,1,1-trifluoropropan-2-ol] |
| 101 to 999 | 1 to 100 | Nc1cc([C@H](CC(=O)NC23CCC(c4ccccc4)(CC2)CC3)c2ccccc2)c2nn[nH]c2n1 [Example 200, (R)-3-(5-amino-3H-[1,2,3]triazolo[4,5-b]pyridin-7-yl)-3-phenyl-N-(4-phenylbicyclo[2.2.2]octan-1-yl)propanamide] |
| 101 to 999 | 1 to 100 | Nc1cc([C@H](CC(=O)NC23CCC(c4ccccc4)(CC2)C(O)C3)c2ccccc2)c2nn[nH]c2n1 (stereo partly drawn) [Example 201, (3R)-3-{5-amino-3H-[1,2,3]triazolo[4,5-b]pyridin-7-yl}-N-{3-hydroxy-4-phenylbicyclo [2.2.2]octan-1-yl}-3-phenylpropanamide] |
| 101 to 999 | 1 to 100 | Nc1cc([C@H](CC(=O)NC23CCC(c4ccccc4)(CC2)CC3)c2cccc(O)c2)c2nn[nH]c2n1 [Example 202, (3R)-3-{5-amino-3H-[1,2,3]triazolo[4,5-b]pyridin-7-yl}-3-(3-hydroxyphenyl)-N-{4-phenylbicyclo [2.2.2]octan-1-yl} propanamide] |
| 1000 to 10000 | 101 to 999 | Nc1cc([C@H](CC(=O)NC2CCC(c3ccccc3)c3ccccc32)c2ccccc2)c2nn[nH]c2n1 (stereo partly drawn) [Example 203, (3R)-3-{5-amino-3H-[1,2,3]triazolo[4,5-b]pyridin-7-yl}-3-phenyl-N-(4-phenyl-1,2,3,4-tetrahydronaphthalen-1-yl)propanamide] |
| 1000 to 10000 | 1000 to 10000 | Nc1cc(C(CCCN2CC(c3ccc(F)cc3)c3ccccc32)c2ccccc2)c2nn[nH]c2n1 (stereo not drawn) [Example 205, 7-{4-[3-(4-fluorophenyl)-2,3-dihydro-1H-indol-1-yl]-1-phenylbutyl}-3H-[1,2,3]triazolo [4,5-b]pyridin-5-amine] |
| 1000 to 10000 | 1 to 100 | Nc1cc(C(CCCN2CCC(c3ccccc3)c3ccccc32)c2ccccc2)c2nn[nH]c2n1 (stereo not drawn) [Example 206, 7-[1-phenyl-4-(4-phenyl-1,2,3,4-tetrahydroquinolin-1-yl)butyl]-3H-[1,2,3]triazolo [4,5-b]pyridin-5-amine] |
| 101 to 999 | 1 to 100 | Nc1cc(C(CCCN2CCC(O)(c3ccccc3)CC2)c2ccccc2)c2nn[nH]c2n1 (stereo not drawn) [Example 207, 1-(4-{5-amino-3H-[1,2,3]triazolo [4,5-b]pyridin-7-yl}-4-phenylbutyl)-4-phenylpiperidin-4-ol] |
| 1000 to 10000 | 101 to 999 | Nc1cc(C(CCCN[C@H]2CC[C@H](c3ccccc3)CC2)c2ccccc2)c2nn[nH]c2n1 (stereo partly drawn) [Example 208, 7-(1-phenyl-4-{[(trans)-4-phenylcyclohexyl]amino}butyl)-3H-[1,2,3]triazolo [4,5-b]pyridin-5-amine] |
| 101 to 999 | 101 to 999 | Nc1cc(C(CCCN2CCC(c3ccccc3)C2)c2ccccc2)c2nn[nH]c2n1 (stereo not drawn) [Example 209, 7-[1-phenyl-4-(3-phenylpyrrolidin-1-yl)butyl]-3H-[1,2,3]triazolo [4,5-b]pyridin-5-amine] |
| 101 to 999 | 1 to 100 | Nc1cc(C(CCCN2CCC3(CC2)OCc2ccccc23)c2ccccc2)c2nn[nH]c2n1 (stereo not drawn) [Example 210, 7-(1-phenyl-4-{3H-spiro[2-benzofuran-1,4′-piperidine]-1′-yl}butyl)-3H-[1,2,3]triazolo [4,5-b]pyridin-5-amine] |
| 101 to 999 | 1 to 100 | N#CC1(c2ccccc2)CCN(CCCC(c2ccccc2)c2cc(N)nc3[nH]nnc23)CC1 (stereo not drawn) [Example 211, 1-(4-{5-amino-3H-[1,2,3]triazolo [4,5-b]pyridin-7-yl}-4-phenylbutyl)-4-phenylpiperidine-4-carbonitrile] |
| 101 to 999 | 1 to 100 | Nc1cc(C(CCCN2CCCC(c3ccccc3)CC2)c2ccccc2)c2nn[nH]c2n1 (stereo not drawn) [Example 212, 7-[1-phenyl-4-(4-phenylazepan-1-yl)butyl]-3H-[1,2,3] triazolo[4,5-b] pyridin-5-amine] |
| 101 to 999 | 101 to 999 | Nc1cc(C(CCCN2CCC(Cc3ccccc3)CC2)c2ccccc2)c2nn[nH]c2n1 (stereo not drawn) [Example 213, 7-[4-(4-benzylpiperidin-1-yl)-1-phenylbutyl]-3H-[1,2,3]triazolo [4,5-b]pyridin-5-amine] |
| 101 to 999 | 1 to 100 | Nc1cc([C@H](CCCN2CCCC(c3ccccc3)CC2)c2ccccc2)c2nn[nH]c2n1 (stereo partly drawn) [Example 215, 7-[(1R)-1-phenyl-4-(4-phenylazepan-1-yl)butyl]-3H-[1,2,3]triazolo[4,5-b]pyridin-5-amine] |
| 101 to 999 | 1 to 100 | Nc1cc([C@H](CCCN2[C@@H]3CC[C@H]2C[C@](O)(c2ccc(Cl)cc2)C3)c2ccccc2)c2nn[nH]c2n1 [Example 216, (1R,3R,5S)-8-[(4R)-4-{5-amino-3H-[1,2,3]triazolo [4,5-b]pyridin-7-yl}-4-phenylbutyl]-3-(4-chlorophenyl)-8-azabicyclo[3.2.1] octan-3-ol] |

Reference: US11008317B2, “Triazolopyridine inhibitors of myeloperoxidase and/or EPX” (priority 2016, dated 2021)
